SMILES strings stand for the structures.

The conditions of series [1]: cited from earlier work.
The nature of series [2]: Repeated-dose levodopa pharmacokinetics with increasing carbidopa, entacapone dose levels or tolcapone (Example 2). As to conditions: repeated dosing, increased COMT-inhibition by higher entacapone dose or by tolcapone. Type of series: in vivo, human. From the text:
The primary objective of the study was to evaluate the effects of different carbidopa dose levels on the pharmacokinetics (PKs) of levodopa with concomitant administration of different entacapone dose levels and with the moderately potent COMT inhibitor tolcapone.
The study subjects were randomly allocated to receive either increasing doses of entacapone or standard dose of tolcapone combined with increasing doses of carbidopa in each treatment period, a total of 12 different dose combinations. Entacapone was administered concomitantly with 100 mg of levodopa and 25 mg of carbidopa at 3.5-hour intervals 4 times a day and tolcapone 3 times a day. In addition, the study subjects received increasing dose levels of carbidopa.
There were three groups, one for each carbidopa dose level, and 4 treatment periods in each group, one for each entacapone dose level or for tolcapone and for the same subjects with cross-over design so that one subject participated for the 4 periods. By this study design the effect of entacapone and tolcapone on carbidopa dose escalation and subsequently to levodopa PK could be assessed in repeated dose setting in humans.
After each levodopa dose of the day, the levodopa plasma profile was assessed. The levodopa plasma concentrations after entacapone dose escalation and tolcapone standard dose and with increased carbidopa dose are given in FIG. 3.

A short description of series [3]: Repeated-dose levodopa/carbidopa pharmacokinetics with and without entacapone, human subjects (Example 1). As to conditions: for levodopa pharmacokinetics, effect of increasing the carbidopa dose: repeated dosing 4 times a day, levodopa 100 mg, carbidopa 25/50/100 mg. Format: in vivo. From the text:
The primary objective of the study was to evaluate the effects of different carbidopa dose levels on the pharmacokinetics (PKs) of levodopa with and without concomitant administration of entacapone. This was the first study to evaluate the effect of the combinations in a repeated dose setting in human subjects. Pharmacokinetics of levodopa in the presence of AADC and COMT inhibition with substances like carbidopa and entacapone is complex and difficult to model based on single dose PK data in humans, or animal models. However, it has been shown earlier that levodopa PK in healthy subjects is similar to that seen in PD patients and therefore the results of this study indicate how the levodopa PK will be in PD patients and how the levodopa PK will predict symptom control of PD. A total of 25 human subjects were enrolled into the study. The study subjects were randomly allocated to receive either 200 mg of entacapone or corresponding placebo in each treatment period. Entacapone, or a corresponding placebo, was administered concomitantly with 100 mg of levodopa and 25 mg of carbidopa at 3.5-hour intervals 4 times a day. In addition, the study subjects received in a randomised order in each treatment period one of the additional dose levels (0 mg, 25 mg, and 75 mg) of carbidopa. There were 3 treatment periods, one for each carbidopa dose level and for the same subjects with cross-over design so that each subject participated for the 3 periods. There were two groups with the same carbidopa doses, one group with and one group without concomitant entacapone administration. By this study design, the effect of entacapone on carbidopa dose escalation and subsequently to levodopa PK could be assessed in repeated dose setting in humans. Dose combinations were: • A: Entacapone 200 mg+levodopa 100 mg+carbidopa 25 mg • B: Entacapone 200 mg+levodopa 100 mg+carbidopa 50 mg • C: Entacapone 200 mg+levodopa 100 mg+carbidopa 100 mg • E: Levodopa 100 mg+carbidopa 25 mg • F: Levodopa 100 mg+carbidopa 50 mg • G: Levodopa 100 mg+carbidopa 100 mg After the first and last dose of the day, the whole levodopa and carbidopa plasma profiles were assessed and after the second and third dose only the minimum concentrations (just before the next dose at 3.5 and at 7.0 hours) were assessed.

The mark [4] stands for this setting: increased carbidopa dose in the presence of a COMT inhibitor.

For the molecule `Cc1c(Cl)c(C)[n+]([O-])c(Cl)c1-c1noc(-c2cc(O)c(O)c([N+](=O)[O-])c2)n1` [BIA 9-1067, 5-[3-(2,5-dichloro-4,6-dimethyl-1-oxypyridin-3-yl)-[1,2,4]oxadiazol-5-yl]-3-nitrobenzene-1,2-diol], the solubility entry in series [1] is on record as “poorly soluble”.
`N[C@@H](Cc1ccc(O)c(O)c1)C(=O)O` [levodopa, (−)-L-alpha-amino-beta-(3,4-dihydroxybenzene)propanoic acid]: the entries for the “levodopa pharmacokinetics, effect of increasing the carbidopa dose” value in series [2], in series [3] (with entacapone 200 mg) and in series [3] (without entacapone) were “significantly improve”, “significantly improve” and “did not have such an effect”, respectively. Further, the AUC of levodopa entry in series [3] (setting [4]) was “significantly increased”. Further, the Cmin of levodopa entry in series [3] (setting [4]) is reported as “significantly increased”. In addition, the “maximum concentrations of levodopa” value in series [3] (increased carbidopa dose with COMT inhibitor) is given as “not clinically significantly increased”.
Turning to `CCN(CC)C(=O)/C(C#N)=C/c1cc(O)c(O)c([N+](=O)[O-])c1` [entacapone, (E)-2-cyano-3-(3,4-dihydroxy-5-nitrophenyl)-N-diethyl-2 propenamide], the water solubility entry in series [1] (water) is listed as “poor solubility”.
With `C[C@@](Cc1ccc(O)c(O)c1)(NN)C(=O)O` [carbidopa, (−)-L-alpha-hydrazino-alpha-methyl-beta-(3,4-dihydroxybenzene)propionic acid], the “accumulation of carbidopa concentrations in plasma” value in series [3] (increased carbidopa dose, repeated dosing, towards the end of the dosing period) is given as “no accumulation”.

Values taken from patent US12521363B2, “Use of levodopa, carbidopa and entacapone for treating Parkinson's disease” (ORION CORPORATION, priority 2010, dated 2026).
